# In US20080318938A1, “METHODS FOR TREATING ABERRANT CELL PROLIFERATION DISORDERS” (priority 2007, published 2008):
# Legend:
# Kasumi-1 = test: Inhibition of cell proliferation (MTT); type: cell-based; conditions: Homo sapiens; Kasumi-1, Leukemia; 48 hours
# Protocol: (§1) Inhibition of cell proliferation is determined in human tumor cell lines. Innoculation density and doubling times for specific cell lines are listed at World Wide Web URL “dtp.nci.nih.gov/docs/misc/common_files/cell_list.html.”
# (§2) • 1. Plate adherent cells the day before starting the experiment in 180 μl growth media (see list hereafter). • 2. Day of experiment, count and plate suspension cells in 180 μl growth media (see list on next page). • 3. Make 10× Compound, vehicle, and chemotherapeutic cocktail • a. Compound (1× to 10×) • i. 10 μM Compound to 100 μM • ii. 3 μM Compound to 30 μM • iii. 1 μM Compound to 10 μM • iv. 0.3 μM Compound to 3 μM • v. 0.1 μM Compound to 1 μM • b. Vehicle • i. PBS, equivalent to the volume used for 10 μM Compound (1× is ˜0.06% PBS) • c. Chemotherapeutic cocktail (1× to 10×): • i. 1 μM Velcade to 10 μM • ii. 100 μM Etoposide to 1 mM • iii. 20 μM Taxol to 200 μM • 4. Add 20 μl of the 10× compound/vehicle/chemotherapeutic cocktail to cells. • 5. Incubate at 37° C., 5% CO2 for 48 hours. • 6. Aspirate media. For suspension cells, spin plate at 1500 RPM for 10 minutes. Use a multichannel pipettor to slowly remove media. • 7. Add 200 μl of Thiazolyl Blue Tetrazolium Bromide (MTT) to each well: 0.863 mg/ml MTT in growth media.
# (§3) Proliferation of several cancer cells was inhibited by compound TA1-1B (which is a particular mixture of the isomers represented by TA1-1A), as shown in the following table (Table 1). The value EC50 is the amount of Compound TA1-1B that results in 50% inhibition of proliferation of the indicated cell type.
# ST486 = test: Inhibition of cell proliferation (MTT); type: cell-based; conditions: Homo sapiens; ST486, Lymphoma; 48 hours
# Protocol: as §1, §2, §3
# NK92MI = test: Inhibition of cell proliferation (MTT); type: cell-based; conditions: Homo sapiens, Lymphoma, 48 hours
# Protocol: as §1, §2, §3
# HCC-2998 = test: Inhibition of cell proliferation (MTT); type: cell-based; conditions: Homo sapiens; HCC-2998, Colon; 48 hours
# Protocol: as §1, §2, §3
# Namalwa = test: Inhibition of cell proliferation (MTT); type: cell-based; conditions: Homo sapiens, Lymphoma, 48 hours
# Protocol: as §1, §2, §3
# MV-4-11 = test: Inhibition of cell proliferation (MTT); type: cell-based; conditions: Homo sapiens, MV4-11; MV-4-11, Leukemia; 48 hours
# Protocol: as §1, §2, §3
# Jurkat = test: Inhibition of cell proliferation (MTT); type: cell-based; conditions: Homo sapiens, Leukemia, 48 hours
# Protocol: as §1, §2, §3
# DOHH2 = test: Inhibition of cell proliferation (MTT); type: cell-based; conditions: Homo sapiens, DOHH-2; DOHH2, Lymphoma; 48 hours
# Protocol: as §1, §2, §3
# Hut78 = test: Inhibition of cell proliferation (MTT); type: cell-based; conditions: Homo sapiens; Hut78, Lymphoma; 48 hours
# Protocol: as §1, §2, §3
# Daudi = test: Inhibition of cell proliferation (MTT); type: cell-based; conditions: Homo sapiens, Lymphoma, 48 hours
# Protocol: as §1, §2, §3
# MOLT4 = test: Inhibition of cell proliferation (MTT); type: cell-based; conditions: Homo sapiens, MOLT-4; MOLT4, Leukemia; 48 hours
# Protocol: as §1, §2, §3
# Neurokinin NK2 receptor = Neurokinin NK2 receptor (Homo sapiens, UniProt P21452); test: Receptor binding
# Sequence of Neurokinin NK2 receptor (P21452 whole entry): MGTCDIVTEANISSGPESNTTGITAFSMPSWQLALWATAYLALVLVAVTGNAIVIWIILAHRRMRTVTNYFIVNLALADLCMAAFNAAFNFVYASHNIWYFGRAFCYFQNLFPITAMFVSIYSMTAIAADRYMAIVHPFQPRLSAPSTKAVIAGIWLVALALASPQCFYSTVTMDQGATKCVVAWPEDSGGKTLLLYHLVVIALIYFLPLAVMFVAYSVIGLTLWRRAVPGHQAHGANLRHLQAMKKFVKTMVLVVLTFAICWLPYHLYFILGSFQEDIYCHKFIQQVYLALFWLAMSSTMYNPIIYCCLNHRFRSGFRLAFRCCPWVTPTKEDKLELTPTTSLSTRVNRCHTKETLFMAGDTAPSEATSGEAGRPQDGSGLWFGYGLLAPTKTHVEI
# [1] = biological target: CCKB/CCK2 Cholecystokinin receptor (Homo sapiens, UniProt P32239); test: Receptor binding
# Sequence of CCKB/CCK2 Cholecystokinin receptor (P32239 whole entry): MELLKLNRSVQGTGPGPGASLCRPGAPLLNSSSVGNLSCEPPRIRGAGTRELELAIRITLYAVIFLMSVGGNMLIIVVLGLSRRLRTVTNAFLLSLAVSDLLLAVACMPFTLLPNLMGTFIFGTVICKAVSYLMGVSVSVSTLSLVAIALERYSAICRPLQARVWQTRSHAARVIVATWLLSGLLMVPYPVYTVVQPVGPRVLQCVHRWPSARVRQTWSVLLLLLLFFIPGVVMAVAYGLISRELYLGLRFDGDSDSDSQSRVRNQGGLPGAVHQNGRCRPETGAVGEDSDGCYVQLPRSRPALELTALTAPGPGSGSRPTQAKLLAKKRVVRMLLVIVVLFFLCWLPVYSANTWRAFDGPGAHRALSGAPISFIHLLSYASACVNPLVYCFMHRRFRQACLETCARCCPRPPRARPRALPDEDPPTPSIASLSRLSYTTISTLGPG
# [2] = tested on: σ (non-selective) sigma receptors; test: Receptor binding
# M1 Muscarinic receptor = M1 Muscarinic receptor (Homo sapiens, UniProt P11229); test: Receptor binding
# Sequence of M1 Muscarinic receptor (P11229 whole entry): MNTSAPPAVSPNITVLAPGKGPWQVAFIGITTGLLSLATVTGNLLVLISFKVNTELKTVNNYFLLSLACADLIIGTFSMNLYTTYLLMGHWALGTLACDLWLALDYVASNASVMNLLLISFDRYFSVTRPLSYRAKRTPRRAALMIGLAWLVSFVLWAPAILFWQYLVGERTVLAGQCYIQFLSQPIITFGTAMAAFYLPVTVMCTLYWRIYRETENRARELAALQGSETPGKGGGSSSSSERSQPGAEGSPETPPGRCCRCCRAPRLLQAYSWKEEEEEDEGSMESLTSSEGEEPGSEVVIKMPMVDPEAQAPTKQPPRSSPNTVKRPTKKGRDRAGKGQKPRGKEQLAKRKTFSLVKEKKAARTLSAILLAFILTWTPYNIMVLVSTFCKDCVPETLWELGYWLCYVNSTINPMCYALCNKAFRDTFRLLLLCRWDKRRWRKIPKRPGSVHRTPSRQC
# [3] = biological target: CCKA/CCK1 Cholecystokinin receptor (Homo sapiens, UniProt P32238); test: Receptor binding
# Sequence of CCKA/CCK1 Cholecystokinin receptor (P32238 whole entry): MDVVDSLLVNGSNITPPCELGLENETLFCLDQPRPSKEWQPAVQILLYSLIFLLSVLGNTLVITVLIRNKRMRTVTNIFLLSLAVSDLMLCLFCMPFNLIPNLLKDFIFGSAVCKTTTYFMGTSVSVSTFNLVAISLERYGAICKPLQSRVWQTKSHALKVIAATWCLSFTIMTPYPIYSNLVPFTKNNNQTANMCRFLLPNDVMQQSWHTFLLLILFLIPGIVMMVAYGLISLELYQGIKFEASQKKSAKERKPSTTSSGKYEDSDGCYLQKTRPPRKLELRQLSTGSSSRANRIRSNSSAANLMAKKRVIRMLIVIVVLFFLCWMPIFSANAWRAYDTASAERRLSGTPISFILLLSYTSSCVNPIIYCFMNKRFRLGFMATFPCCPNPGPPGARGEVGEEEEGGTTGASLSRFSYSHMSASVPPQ
# Protocol: The binding IC50, functional effect, and functional EC50 of TA1-1B on exemplary receptors was determined.
# [4] = tested on: κ-opioid (KOP) opioid receptor; test: Receptor binding
# CCRF-CEM = test: Inhibition of cell proliferation (MTT); type: cell-based, human; conditions: Leukemia
# Protocol: as §1, §2, §3
# SR = test: Inhibition of cell proliferation (MTT); type: cell-based, human; conditions: Leukemia
# Protocol: as §1, §2, §3
# HOP-92 = test: Inhibition of cell proliferation (MTT); type: cell-based, human; conditions: HOP-92, Non Small Cell Lung
# Protocol: as §1, §2, §3
# H2-receptor = H2-receptor (Homo sapiens, UniProt P25021); test: Receptor binding
# Sequence of H2-receptor (P25021 whole entry): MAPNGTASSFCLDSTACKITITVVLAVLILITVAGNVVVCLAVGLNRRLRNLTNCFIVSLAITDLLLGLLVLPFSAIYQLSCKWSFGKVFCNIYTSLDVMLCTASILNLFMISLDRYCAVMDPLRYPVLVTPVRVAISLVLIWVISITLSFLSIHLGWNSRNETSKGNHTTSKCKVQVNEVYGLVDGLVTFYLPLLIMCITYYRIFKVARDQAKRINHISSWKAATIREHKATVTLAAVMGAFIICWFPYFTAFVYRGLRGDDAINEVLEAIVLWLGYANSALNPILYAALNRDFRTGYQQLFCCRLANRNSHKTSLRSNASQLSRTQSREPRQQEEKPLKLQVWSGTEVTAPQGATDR
# [5] = Distribution in human whole blood fractions (LC-MS/MS); type: in vitro ADME
# Protocol: Twenty five mL healthy donor whole blood was collected in the presence of heparin. Human whole blood was added with Compound TA1-1B to reach final concentration of 3 uM. Whole blood was gently mized and incubated at 37° C. for 4 hrs. At the end of the incubation 0.5 mL blood was collected and centrifuge at 500×g to separate the platelet-rich plasma for further analysis.
# In order to isolate white blood cells, 5 ml of treated blood was subjected to Ficoll density gradient centrifugation. At the end of the centrifugation formed buffy coat containing most of the white blood cells and Ficolle fractions containing red blood cells and granulocites were collected separately. Obtained white cell fraction was washed with 5 ml of isotonic phosphate buffer and saved for further analysis. Obtained fractions were subjected to Compound TA1-1B quantitative analysis using LC-MS/MS. Fractions obtained from untreated whole blood were used as corresponding biological matrices in LC-MS/MS based bioanalysis.
# The most part of added compound (93.7%) was found in blood formed elements than in plasma indicating to a potentially high volume of distribution and good tissue penetration of compound TA1-1B.
# [6] = 3 uM, 37° C., 4 hrs, White cells
smiles,measurement,setting,value
CN1CCC[C@H]1CCNC(=O)c1cn2c3c(c(N4CCC(c5cnccn5)C4)c(F)cc3c1=O)Oc1cc3ccccc3cc1-2 (some centres unmarked) [TA1-1B],EC50,Kasumi-1,2050 nM
same,EC50,ST486,1280 nM
same,EC50,NK92MI,1300 nM
same,EC50,HCC-2998,2540 nM
same,EC50,Namalwa,1420 nM
same,EC50,MV-4-11,5810 nM
same,EC50,Jurkat,1210 nM
same,EC50,DOHH2,1560 nM
same,EC50,Hut78,3300 nM
same,EC50,Daudi,1290 nM
same,EC50,MOLT4,1220 nM
same,inhibition at 1 µM,Neurokinin NK2 receptor,107%
same,inhibition at 1 µM,[1],93%
same,% inhibition @ 1 uM,[2],67%
same,inhibition at 1 µM,M1 Muscarinic receptor,98%
same,IC50,[3]; CCK1/CCKA,640 nM
same,inhibition at 1 µM,"[3]; CCKA/CCK1, 1 uM",64%
same,% inhibition @ 1 uM,[4],52%
same,EC50,"CCRF-CEM; Homo sapiens, 48 h",630 nM
same,EC50,CCRF-CEM; 48 hours,1220 nM
same,EC50,"SR; Homo sapiens, 48 h",914 nM
same,EC50,SR; 48 hours,1300 nM
same,EC50,HOP-92; 48 hours,1960 nM
same,EC50,"HOP-92; Homo sapiens, HOP-92, 48 h",1800 nM
same,inhibition at 1 µM,H2-receptor,48%
same,Mass balance Amount,"[5]; 3 uM added, 5 mL",14.7 nmol
same,Mass balance Conc.,"[5]; 3 uM added, 5 mL",2.95 µM
same,% of compound in plasma fraction,"[5]; 3 uM, 37° C., 4 hrs, Plasma",6.2%
same,Amount in plasma fraction,"[5]; 3 uM, 37° C., 4 hrs, Plasma",0.92 nmol
same,Conc. in plasma fraction,"[5]; 3 uM, 37° C., 4 hrs, Plasma",0.37 µM
same,% of compound in red cells fraction,"[5]; 3 uM, 37° C., 4 hrs, Red cells",81.5%
same,Amount in red cells fraction,"[5]; 3 uM, 37° C., 4 hrs, Red cells",12.0 nmol
same,Conc. in red cells fraction,"[5]; 3 uM, 37° C., 4 hrs, Red cells",4.85 µM
same,Total amount in all fractions,"[5]; 3 uM, 37° C., 4 hrs, Total",14.7 nmol
same,% of compound in white cells fraction,[5]; [6],12.2%
same,Amount in white cells fraction,[5]; [6],1.8 nmol
same,Conc. in white cells fraction,[5]; [6],81.79 µM
same,Part of added compound found in blood formed elements,"[5]; 3 uM, 37° C., 4 hrs, red and white cells versus plasma",93.7%
